In patent US10131648B2, “Substituted benzothiophenyl derivatives as GPR40 agonists for the treatment of type II diabetes” (Janssen Pharmaceutica NV, priority 2014, dated 2018):
Several values for one entry are separate records, joined by “and”; a condition that tells them apart may be missing. Identical values can stand only once.

Each molecule was assayed against human GPR40 (Homo sapiens (Human), UniProt O14842) (assay: GPR40 Calcium Flux Assay). Conditions: transfected HEK293 cells stably expressing human GPR40; Ca2+ mobilization; mean data; read-out: hGPR40 Ca^2+ Assay EC50.
Sequence of human GPR40 (O14842 whole entry): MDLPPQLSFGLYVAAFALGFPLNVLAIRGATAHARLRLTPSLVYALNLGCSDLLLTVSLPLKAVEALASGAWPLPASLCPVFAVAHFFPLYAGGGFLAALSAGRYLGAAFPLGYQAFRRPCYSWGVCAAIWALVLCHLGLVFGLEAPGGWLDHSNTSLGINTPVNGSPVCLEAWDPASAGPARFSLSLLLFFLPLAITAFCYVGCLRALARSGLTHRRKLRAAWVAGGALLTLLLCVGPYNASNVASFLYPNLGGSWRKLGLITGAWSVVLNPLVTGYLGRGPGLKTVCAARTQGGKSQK
Type: cell-based
Procedure: Compounds were tested in a calcium flux assay using transfected HEK293 cells stably expressing either human GPR40 or rat GPR40. Human GPR40 expressing cells were cultured in DMEM-High Glucose media supplemented with 10% fetal bovine serum, 1×L-Glutamine, 1×Penicillin/Streptomycin and 500 μg/mL G418. Rat GPR40 expressing cells were cultured in DMEM-High Glucose media supplemented with 10% fetal bovine serum and 1 μg/mL puromycin. Cells were plated into poly-D-lysine coated 384-well plates and cultured overnight in a 37° C. humidified tissue culture incubator under 5% CO2/[…] atmosphere. On the day of the experiment, the culture media was replaced with assay buffer (HBSS, 20 mM HEPES, 0.1% BSA) and the cells incubated at 37° C. for 1 h. Calcium-sensitive fluorescent dye (Fluo 8 No-Wash Calcium Dye, ABD Bioquest) was then added and the cells incubated for another 30 min at 37° C. followed by 15 min at room temperature while protected from the light. The cell plate and a plate of diluted compounds of Formula (I) were loaded into a fluorescent plate reader that added compounds onto the cells while measuring the fluorescence intensity of each well. The plate reader recorded fluorescence intensity at 1 second intervals for 8 min and provided the data for analysis in an Excel format. EC50 values were calculated using Prism (GraphPad) software.

| Structure (SMILES) | EC50 |
| --- | --- |
| CC#C[C@@H](CC(=O)O)c1ccc(COc2ccc3scc(-c4ccccc4C)c3c2)cc1 [Cpd 23, (3S)-3-(4-(((3-(2-Methylphenyl)benzo[b]thiophen-5-yl)oxy)methyl)phenyl)hex-4-ynoic acid] | 0.01 µM |
| CC#C[C@@H](CC(=O)O)c1ccc(OCc2ccc3scc(-c4ccccc4Br)c3c2)cc1 [Cpd 20, (3S)-3-(4-((3-(2-Bromophenyl)benzo[b]thiophen-5-yl)methoxy)phenyl)hex-4-ynoic acid] | 0.005 µM |
| CC#CC(CC(=O)O)c1ccc(OCc2ccc3scc(-c4ccc(OCC(O)CO)cc4C)c3c2)nc1 (stereo not drawn) [Cpd 62, 3-(6-((3-(4-(2,3-Dihydroxypropoxy)-2-methylphenyl)benzo[b]thiophen-5-yl)methoxy)pyridin-3-yl)hex-4-ynoic acid] | 0.01 µM |
| CC#C[C@@H](CC(=O)O)c1ccc(OCc2ccc3scc(-c4cnc(OC)cc4C)c3c2)cc1 [Cpd 82, (3S)-3-(4-((3-(6-Methoxy-4-methylpyridin-3-yl)benzo[b]thiophen-5-yl)methoxy)phenyl)hex-4-ynoic acid] | 0.037 µM |
| CC#C[C@@H](CC(=O)O)c1ccc(OCc2ccc3scc(-c4ccc(C5CCNCC5)cc4C)c3c2)cc1 [Cpd 96, (3S)-3-(4-((3-(2-Methyl-4-(piperidin-4-yl)phenyl)benzo[b]thiophen-5-yl)methoxy)phenyl)hex-4-ynoic acid] | 0.008 µM |
| CC#C[C@@H](CC(=O)O)c1ccc(OCc2ccc3scc(-c4ccncc4OC)c3c2)cc1 [Cpd 83, (3S)-3-(4-((3-(3-Methoxypyridin-4-yl)benzo[b]thiophen-5-yl)methoxy)phenyl)hex-4-ynoic acid] | 0.01 µM |
| CC#C[C@@H](CC(=O)O)c1ccc(COc2ccc3scc(-c4ccc(C5CCS(=O)(=O)CC5)cc4C)c3c2)cc1 [Cpd 26, (3S)-3-(4-(((3-(4-(1,1-Dioxidotetrahydro-2H-thiopyran-4-yl)-2-methylphenyl)benzo[b]thiophen-5-yl)oxy)methyl)phenyl)hex-4-ynoic acid] | 0.018 µM |
| CC#C[C@H](CC(=O)O)c1ccc(OCc2ccc3scc(-c4ccc(OCCC(C)(C)O)cc4C)c3c2)nc1 [Cpd 70, (3S)-3-(6-((3-(4-(3-Hydroxy-3-methylbutoxy)-2-methylphenyl)benzo[b]thiophen-5-yl)methoxy)pyridin-3-yl)hex-4-ynoic acid] | 0.5 µM |
| CC#C[C@@H](CC(=O)O)c1ccc(OCc2ccc3scc(-c4ccc(CC5CCNCC5)cc4C)c3c2)cc1 [Cpd 95, (3S)-3-(4-((3-(2-Methyl-4-(piperidin-4-ylmethyl)phenyl)benzo[b]-thiophen-5-yl)methoxy)phenyl)hex-4-ynoic acid] | 0.004 µM |
| CC#C[C@@H](CC(=O)O)c1ccc(OCc2ccc3scc(-c4c(C)cccc4OCCOC)c3c2)cc1 [Cpd 66, (3S)-3-[4-([3-[2-(2-Methoxyethoxy)-6-methylphenyl]-1-benzothiophen-5-yl]methoxy)phenyl]hex-4-ynoic acid] | 0.014 µM |
| CC#C[C@@H](CC(=O)O)c1ccc(OCc2ccc3scc(-c4ccccc4C)c3c2)nc1 [Cpd 85, (3R)-3-[6-[[3-(2-Methylphenyl)benzo[b]thiophen-5-yl]methoxy]pyridin-3-yl]hex-4-ynoic acid] | 0.007 µM and 0.006 µM |
| CC#C[C@@H](CC(=O)O)c1ccc(OCc2ccc3scc(-c4ncc(OCCOC)cc4C)c3c2)cc1 [Cpd 48, (3S)-3-(4-((3-(5-(2-Methoxyethoxy)-3-methylpyridin-2-yl)benzo[b]thiophen-5-yl)methoxy)phenyl)hex-4-ynoic acid] | 0.01 µM |
| CC#C[C@@H](CC(=O)O)c1ccc(COc2ccc3scc(-c4ccc(OC5CCOCC5)cc4C)c3c2)cc1 [Cpd 57, (3S)-3-[4-[([3-[2-Methyl-4-(oxan-4-yloxy)phenyl]-1-benzothiophen-5-yl]oxy)methyl]phenyl]hex-4-ynoic acid] | 0.017 µM |
| CC#C[C@H](CC(=O)O)c1ccc(OCc2ccc3scc(-c4ccc(OCCOC)cc4C)c3c2)nc1 [Cpd 76, (3S)-3-(6-((3-(4-(2-Methoxyethoxy)-2-methylphenyl)benzo[b]thiophen-5-yl)methoxy)pyridin-3-yl)hex-4-ynoic acid] | 0.83 µM |
| CC#C[C@@H](CC(=O)O)c1ccc(OCc2ccc3scc(-c4ncc(OCCOC)cc4C)c3c2)nc1 [Cpd 89, (3R)-3-(6-((3-(5-(2-Methoxyethoxy)-3-methylpyridin-2-yl)benzo[b]thiophen-5-yl)methoxy)pyridin-3-yl)hex-4-ynoic acid] | 0.02 µM |
| CC#C[C@@H](CC(=O)O)c1ccc(OCc2ccc3scc(-c4ccccc4C(F)(F)F)c3c2)cc1 [Cpd 21, (3S)-3-(4-((3-(2-(Trifluoromethyl)phenyl)benzo[b]thiophen-5-yl)methoxy)phenyl)hex-4-ynoic acid] | 0.008 µM |
| CC#C[C@@H](CC(=O)O)c1ccc(OCc2ccc3scc(-c4ccc(OCCCS(C)(=O)=O)cc4C)c3c2)cc1 [Cpd 4, (3S)-3-[4-[[3-[2-Methyl-4-(3-methylsulfonylpropoxy)phenyl]benzo[b]thiophen-5-yl]methoxy]phenyl]hex-4-ynoic acid] | 0.003 µM |
| CC#C[C@@H](CC(=O)O)c1ccc(COc2ccc3scc(-c4ccc(OCC5CCS(=O)(=O)CC5)cc4C)c3c2)cc1 [Cpd 59, (3S)-3-{4-[((3-{4-[(1,1-Dioxo-tetrahydro-2H-thiopyran-4-yl)methoxy]-2-methylphenyl}-1-benzothiophen-5-yl)oxy)methyl]phenyl}hex-4-ynoic acid] | 0.014 µM |
| CC#C[C@H](CC(=O)O)c1ccc(OCc2ccc3scc(-c4ccc(OCC5CCOCC5)cc4C)c3c2)nc1 [Cpd 72, (3S)-3-(6-((3-(2-Methyl-4-((tetrahydro-2H-pyran-4-yl)methoxy)phenyl)benzo[b]thiophen-5-yl)methoxy)pyridin-3-yl)hex-4-ynoic acid] | 1.33 µM |
| Cc1cc(OC2CCS(=O)(=O)CC2)ccc1-c1csc2ccc(COc3ccc([C@]4(CC(=O)O)C[C@@H](O)C4)cc3)cc12 [Cpd 36, 2-((1r,3r)-1-(4-((3-(4-((1,1-Dioxidotetrahydro-2H-thiopyran-4-yl)oxy)-2-methylphenyl)benzo[b]thiophen-5-yl)methoxy)phenyl)-3-hydroxycyclobutyl)acetic acid] | 0.043 µM |
| CC#C[C@@H](CC(=O)O)c1ccc(OCc2ccc3scc(-c4ccccc4OC)c3c2)cc1 [Cpd 79, (3S)-3-(4-((3-(2-Methoxyphenyl)benzo[b]thiophen-5-yl)methoxy)phenyl)hex-4-ynoic acid] | 0.028 µM |
| CCOCCOc1ccc(-c2csc3ccc(COc4ccc(C5(CC(=O)O)CC(=O)C5)cc4)cc23)c(C)c1 [Cpd 32, 2-(1-(4-((3-(4-(2-Ethoxyethoxy)-2-methylphenyl)benzo[b]thiophen-5-yl)methoxy)phenyl)-3-oxocyclobutyl)acetic acid] | 0.036 µM |
| CC#C[C@@H](CC(=O)O)c1ccc(OCc2ccc3scc(-c4ccc(OCCOC)nc4C)c3c2)cc1 [Cpd 50, (3S)-3-(4-((3-(6-(2-Methoxyethoxy)-2-methylpyridin-3-yl)benzo[b]thiophen-5-yl)methoxy)phenyl)hex-4-ynoic acid] | 0.012 µM |
| CC#C[C@H](CC(=O)O)c1ccc(OCc2ccc3scc(-c4ccc(OCC5CCS(=O)(=O)CC5)cc4C)c3c2)nc1 [Cpd 74, (3S)-3-(6-((3-(4-((1,1-Dioxidotetrahydro-2H-thiopyran-4-yl)methoxy)-2-methylphenyl)benzo[b]thiophen-5-yl)methoxy)pyridin-3-yl)hex-4-ynoic acid] | 0.18 µM |
| CC#C[C@@H](CC(=O)O)c1ccc(OCc2ccc3scc(-c4ccc(C5CCS(=O)(=O)CC5)cc4C)c3c2)cc1 [Cpd 8, (3S)-3-[4-[[3-[4-(1,1-Dioxothian-4-yl)-2-methyl-phenyl]benzo[b]thiophen-5-yl]methoxy]phenyl]hex-4-ynoic acid] | 0.02 µM |
| CC#C[C@@H](CC(=O)O)c1ccc(COc2ccc3scc(-c4ccc(OCC5(C)CS(=O)(=O)C5)cc4C)c3c2)cc1 [Cpd 60, (3S)-3-(4-(((3-(2-Methyl-4-((3-methyl-1,1-dioxidothietan-3-yl)methoxy)phenyl)benzo[b]thiophen-5-yl)oxy)methyl)phenyl)hex-4-ynoic acid] | 0.07 µM |
| CC#CC(CC(=O)O)c1ccc(OCc2ccc3scc(-c4ccccc4C)c3c2)cc1 (stereo not drawn) [Cpd 97, 3-(4-((3-(2-Methylphenyl)benzo[b]thiophen-5-yl)methoxy)phenyl)hex-4-ynoic acid] | 0.002 µM |
| CC#C[C@@H](CC(=O)O)c1ccc(OCc2ccc3scc(-c4nc(Cl)ccc4C)c3c2)cc1 [Cpd 93, (3S)-3-(4-((3-(6-Chloro-3-methylpyridin-2-yl)benzo[b]thiophen-5-yl)methoxy)phenyl)hex-4-ynoic acid] | 0.015 µM |
| CC#C[C@@H](CC(=O)O)c1ccc(OCc2ccc3scc(-c4cc(OCCOC)ccc4C)c3c2)cc1 [Cpd 65, (3S)-3-[4-([3-[5-(2-Methoxyethoxy)-2-methylphenyl]-1-benzothiophen-5-yl]methoxy)phenyl]hex-4-ynoic acid] | 0.011 µM |
| CC#C[C@@H](CC(=O)O)c1ccc(COc2ccc3scc(-c4ccc(OCCCS(C)(=O)=O)cc4C)c3c2)cc1 [Cpd 24, (3S)-3-(4-(((3-(2-Methyl-4-(3-(methylsulfonyl)propoxy)phenyl)benzo[b]thiophen-5-yl)oxy)methyl)phenyl)hex-4-ynoic acid] | 0.009 µM |
